# Columns and labels:
# [1] = Pharmacokinetics following single intravenous and oral gavage dosing (AUC0-24h); type: in vivo; conditions: mouse, plasma; single oral dose 30 mg/Kg, male CD-1 mice
# Description: Compounds disclosed herein were studied for animal tolerability and pharmacokinetics following single intravenous (iv) and oral gavage (po) dosing to male CD-1 mice. For each compound in each dosing route, 3 mice were used with iv dosing volume of 5 mL/kg and po dosing volume of 10 mL/kg. The compounds were formulated in 10% DMSO, 30% PEG400, 60% aqueous solution containing 20% 2-hydroxypropyl-β-cyclodextrin. Blood sampling time points for iv dosing were 0.083, 0.25, 0.5, 1, 2, 4, 8 and 24 h. The sampling time points for po dosing were 0.25, 0.5, 1, 2, 4, 6, 8 and 24 h. Mice activities were monitored and recorded immediately following the dosing. The prepared plasma samples were analyzed using LC/MS/MS on AB Sciex Triple Quad 5500+ system. The PK parameters were determined by non-compartmental analysis using WinNonlin (Version 8.0).
# [2] = biological target: KRAS-G12V/RAF1 (Homo sapiens (Human), UniProt P01116, G12V); test: KRAS/RAF1 binding inhibition assay (AlphaScreen)
# Sequence of KRAS-G12V/RAF1 (P01116-2 other isoform, or with tags, fused parts or gaps G12V): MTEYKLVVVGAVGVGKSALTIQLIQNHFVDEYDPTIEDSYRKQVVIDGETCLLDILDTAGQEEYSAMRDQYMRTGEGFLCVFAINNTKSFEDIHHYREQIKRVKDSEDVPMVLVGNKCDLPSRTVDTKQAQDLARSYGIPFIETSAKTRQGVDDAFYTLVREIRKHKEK
# Outline: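 IC50 comes from variable-slope nonlinear fits of % inhibition (relative to DMSO) against inhibitor concentration. The AlphaScreen signal tracks the interaction of GppNHp-bound KRAS G12V with the RAF1 RBD after 60 min at 4° C with compound in 2% DMSO final.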
# [3] = biological target: KRAS G12V (Homo sapiens (Human), UniProt P01116, G12V); test: KRAS G12V degradation in SW620 cells (Western blot, DC50); type: cell-based; conditions: 24 hours
# Sequence of KRAS G12V (P01116-2 other isoform, or with tags, fused parts or gaps G12V): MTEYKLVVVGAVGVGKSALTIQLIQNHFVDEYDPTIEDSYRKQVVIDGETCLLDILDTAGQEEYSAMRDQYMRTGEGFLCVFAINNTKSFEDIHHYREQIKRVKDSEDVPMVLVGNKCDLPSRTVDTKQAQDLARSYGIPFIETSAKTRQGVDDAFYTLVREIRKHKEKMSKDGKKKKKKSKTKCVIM
# Outline: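 KRAS levels were quantified by fluorescent Western blot as percent of the DMSO control after 24 h of compound exposure at 37° C in homozygous KRAS G12V SW620 cells. A four-parameter variable-slope fit of the dose-response gave the half-maximal degradation concentration.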
# [4] = system: SW620 cells; test: 3D cell growth inhibition of SW620 cells carrying endogenous KRAS G12V mutation (CellTiter-Glo 3D, GI50); type: cell-based; conditions: Homo sapiens, SW-620, 144 h; SW620 cells, 6 days; read-out: SW620 3D cell growth GI50
# Outline: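 […], compound exposure lasted 6 days at 37° C, added the day after plating from DMSO stocks over a concentration range. Cells: SW620, KRAS G12V, 3D culture.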
Compound,AUC(0-t) [1],IC50 [2],DC50 [3],GI50 [4]
"CCc1c(F)ccc2cc(O)cc(-c3ncc4c(N5CCC[C@@](C)(O)C5)nc(OCC5(CN6CCC(F)(CN7CCN(c8ccc9c(c8)CN([C@H]8CCC(=O)NC8=O)C9=O)CC7)CC6)CC5)nc4c3F)c12 [Compound 8, (S)-3-(5-(4-((1-((1-(((7-(8-ethyl-7-fluoro-3-hydroxynaphthalen-1-yl)-8-fluoro-4-((R)-3-hydroxy-3-methylpiperidin-1-yl)pyrido[4,3-d]pyrimidin-2-yl)oxy)methyl)cyclopropyl)methyl)-4-fluoropiperidin-4-yl)methyl)piperazin-1-yl)-1-oxoisoindolin-2-yl)piperidine-2,6-dione]",3420 ng·h/mL,20 to 200 nM,< 1 nM,< 10 nM
"CCc1c(F)ccc2cc(O)cc(-c3ncc4c(N5CCCC6(CCO6)C5)nc(OCC5(CN6CCC(CN7CCN(c8ccc9c(c8)CN([C@H]8CCC(=O)NC8=O)C9=O)CC7)CC6)CC5)nc4c3F)c12 (stereo partly drawn) [Compound 23, (3S)-3-(5-(4-((1-((1-(((7-(8-ethyl-7-fluoro-3-hydroxynaphthalen-1-yl)-8-fluoro-4-(1-oxa-6-azaspiro[3.5]nonan-6-yl)pyrido[4,3-d]pyrimidin-2-yl)oxy)methyl)cyclopropyl)methyl)piperidin-4-yl)methyl)piperazin-1-yl)-1-oxoisoindolin-2-yl)piperidine-2,6-dione]",783 ng·h/mL,20 to 200 nM,,< 10 nM
"CCc1c(F)ccc2cc(O)cc(-c3ncc4c(N5CCCC6(CCO6)C5)nc(OCC5(CN6CCC(CN7CCC(N8CCN(c9ccc%10c(c9)CN([C@H]9CCC(=O)NC9=O)C%10=O)CC8)CC7)CC6)CC5)nc4c3F)c12 (stereo partly drawn) [Compound 38, (3S)-3-(5-(4-(1-((1-((1-(((7-(8-ethyl-7-fluoro-3-hydroxynaphthalen-1-yl)-8-fluoro-4-(1-oxa-6-azaspiro[3.5]nonan-6-yl)pyrido[4,3-d]pyrimidin-2-yl)oxy)methyl)cyclopropyl)methyl)piperidin-4-yl)methyl)piperidin-4-yl)piperazin-1-yl)-1-oxoisoindolin-2-yl)piperidine-2,6-dione]",170 ng·h/mL,,1 to 10 nM,< 10 nM
"CCc1c(F)ccc2cc(O)cc(-c3ncc4c(N5CCC[C@@](C)(O)C5)nc(OCC5(CN6CCC7(CC6)CC(F)(CN6CCN(c8cc(F)c(C9CCC(=O)NC9=O)c(F)c8)CC6)C7)CC5)nc4c3F)c12 (stereo partly drawn) [Compound 46, 3-(4-(4-((7-((1-(((7-(8-ethyl-7-fluoro-3-hydroxynaphthalen-1-yl)-8-fluoro-4-((R)-3-hydroxy-3-methylpiperidin-1-yl)pyrido[4,3-d]pyrimidin-2-yl)oxy)methyl)cyclopropyl)methyl)-2-fluoro-7-azaspiro[3.5]nonan-2-yl)methyl)piperazin-1-yl)-2,6-difluorophenyl)piperidine-2,6-dione]",9130 ng·h/mL,,1 to 10 nM,< 10 nM
"CCc1c(F)ccc2cc(O)cc(-c3ncc4c(N5CCC[C@@](C)(O)C5)nc(OCC5(CN6CCC(F)(CN7CCN(c8ccc(C9CCC(=O)NC9=O)c(F)c8)CC7)CC6)CC5)nc4c3F)c12 (stereo partly drawn) [Compound 84, 3-(4-(4-((1-((1-(((7-(8-ethyl-7-fluoro-3-hydroxynaphthalen-1-yl)-8-fluoro-4-((R)-3-hydroxy-3-methylpiperidin-1-yl)pyrido[4,3-d]pyrimidin-2-yl)oxy)methyl)cyclopropyl)methyl)-4-fluoropiperidin-4-yl)methyl)piperazin-1-yl)-2-fluorophenyl)piperidine-2,6-dione]",11900 ng·h/mL,,,
"CCc1c(F)ccc2cc(O)cc(-c3ncc4c(N5CCC[C@]6(CCO6)C5)nc(OCC5(CN6CCC7(CC6)CC(N6CCN(c8ccc9c(c8)CN([C@H]8CCC(=O)NC8=O)C9=O)CC6)C7)CC5)nc4c3F)c12 [Compound 218, (S)-3-(5-(4-(7-((1-(((7-(8-ethyl-7-fluoro-3-hydroxynaphthalen-1-yl)-8-fluoro-4-((S)-1-oxa-6-azaspiro[3.5]nonan-6-yl)pyrido[4,3-d]pyrimidin-2-yl)oxy)methyl)cyclopropyl)methyl)-7-azaspiro[3.5]nonan-2-yl)piperazin-1-yl)-1-oxoisoindolin-2-yl)piperidine-2,6-dione]",,20 to 200 nM,< 1 nM,< 10 nM

# Continued, in another order:
AUC(0-t) [1],IC50 [2],DC50 [3],Compound,GI50 [4]
220 ng·h/mL,,,"CCc1c(F)ccc2cc(O)cc(-c3ncc4c(N5CCC[C@@](C)(O)C5)nc(OCC5(CN6CCC(CN7CCN(c8ccc9c(c8)CN([C@H]8CCC(=O)NC8=O)C9=O)CC7)CC6)CC5)nc4c3F)c12 [Compound 1, (S)-3-(5-(4-((1-((1-(((7-(8-ethyl-7-fluoro-3-hydroxynaphthalen-1-yl)-8-fluoro-4-((R)-3-hydroxy-3-methylpiperidin-1-yl)pyrido[4,3-d]pyrimidin-2-yl)oxy)methyl)cyclopropyl)methyl)piperidin-4-yl)methyl)piperazin-1-yl)-1-oxoisoindolin-2-yl)piperidine-2,6-dione]",
3250 ng·h/mL,20 to 200 nM,< 1 nM,"CCc1c(F)ccc2cc(O)cc(-c3ncc4c(N5CCC[C@@](C)(O)C5)nc(OCC5(CN6CCC(C)(CN7CCN(c8ccc9c(c8)CN([C@H]8CCC(=O)NC8=O)C9=O)CC7)CC6)CC5)nc4c3F)c12 [Compound 12, (S)-3-(5-(4-((1-((1-(((7-(8-ethyl-7-fluoro-3-hydroxynaphthalen-1-yl)-8-fluoro-4-((R)-3-hydroxy-3-methylpiperidin-1-yl)pyrido[4,3-d]pyrimidin-2-yl)oxy)methyl)cyclopropyl)methyl)-4-methylpiperidin-4-yl)methyl)piperazin-1-yl)-1-oxoisoindolin-2-yl)piperidine-2,6-dione]",< 10 nM
10700 ng·h/mL,,,"CCc1c(F)ccc2cc(O)cc(-c3ncc4c(N5CCC[C@@](C)(O)C5)nc(OCC5(CN6CCC(F)(CN7CCN(c8cccc9c8n(C)c(=O)n9C8CCC(=O)NC8=O)CC7)CC6)CC5)nc4c3F)c12 (stereo partly drawn) [Compound 65, 3-(4-(4-((1-((1-(((7-(8-ethyl-7-fluoro-3-hydroxynaphthalen-1-yl)-8-fluoro-4-((R)-3-hydroxy-3-methylpiperidin-1-yl)pyrido[4,3-d]pyrimidin-2-yl)oxy)methyl)cyclopropyl)methyl)-4-fluoropiperidin-4-yl)methyl)piperazin-1-yl)-3-methyl-2-oxo-2,3-dihydro-1H-benzo[d]imidazol-1-yl)piperidine-2,6-dione]",
7420 ng·h/mL,,,"CCc1c(F)ccc2cc(O)cc(-c3ncc4c(N5CCC[C@@](C)(O)C5)nc(OCC5(CN6CCC(F)(CN7CCN(c8ccc9c(C%10CCC(=O)NC%10=O)nn(C)c9c8)CC7)CC6)CC5)nc4c3F)c12 (stereo partly drawn) [Compound 66, 3-(6-(4-((1-((1-(((7-(8-ethyl-7-fluoro-3-hydroxynaphthalen-1-yl)-8-fluoro-4-((R)-3-hydroxy-3-methylpiperidin-1-yl)pyrido[4,3-d]pyrimidin-2-yl)oxy)methyl)cyclopropyl)methyl)-4-fluoropiperidin-4-yl)methyl)piperazin-1-yl)-1-methyl-1H-indazol-3-yl)piperidine-2,6-dione]",

# From patent US20250092039A1, “GLUTARIMIDE-CONTAINING PAN-KRAS-MUTANT DEGRADER COMPOUNDS AND USES THEREOF” (Tiger Biotherapeutics Inc., priority 2022, published 2025)
